# Patent US8053583B2, “Anti-cancer compound and manufacturing method thereof” (National Defense Medical Center, priority 2008, dated 2011)
# Assays:
# [1] = system: GBM 8401 (human brain glioblastoma) cells; assay: MTT colorimetric assay, GBM 8401 cells; settings: conc. 10 μM; 46 hours with drug, then 2 hours MTT; ratio to control group without drug
# Excerpt: (§1) MTT (tetrazole) assay used to determine tumor viability is based on measurement of the activity of dehydrogenase to determine cell growth conditions. In live cells, dehydrogenase in active mitochondria converts yellow MTT [3-(4,5-dimethylthiazol-2-yl)-2,5-diphenyltetra zolium bromide] into purple formazan on the reductive cleavage of its tetrazolium ring. The formazan crystal is examined under the microscope. While the mitochondria in dead cells are without active dehydrogenase, no crystal is generated and the color remains yellow. After adding MTT into cell cultures and reacting for 2 hours, the amount of generated formazan precipitate is proportional to total amount of dehydrogenase. Removing the culture medium, add DMSO to dissolve the purple formazan precipitate. Then measure the absorbance of the precipitate by is measured by the spectrophotometer at 560/670 nm so as to learn inhibition effect of drugs acted on normal cells and tumor cells.
# (§2) GBM 8401, GBM 8901 (human brain glioblastoma) and SVG p12 (human brain astroglia)cells line are selected to be used in 96 well petri dishes. Each well is filled into the same amount of cells-about 5000 cells per well. After being cultured for 24 hours and cells anchor/attach, the 96 wells are divided into two groups-an experimental group and a control group containing no samples. The samples are diluted into 10 μg/mL by culture medium. Take 200 μL of each sample and add into the experimental group and the control group is added with 200 μL culture medium without samples. After 46 hours of culture, each well is added with 10 μL MTT solution, incubate cells at 37° C., 5% CO2 for 2 hours.
# (§3) Then each well is added with 100 μL, dissolving formazan. Shaking for 10 minutes and measure the absorbance at 560/670 nm of the sample by the spectrometer. The data of the experimental group is divided by the data of the control group to get the estimated cell viability.
# (§4) Three cell lines-GBM 8401, GBM 8901, SVG p12 (normal) are used in cytotoxicity tests of 1,8-bis-substituted amidoanthraquinone. After reacting with the drug for 46 hours, the cells are reacted with certain amount of MTT solution. After 2 hours, DMSO is used to dissolve formazan and O.D. (optical density) at 560/670 nm is measured. Then calculate the radios of the experimental groups (with drugs) to the control groups (without drugs).
# [2] = system: GBM 8901 (human brain glioblastoma) cells; assay: MTT colorimetric assay, GBM 8901 cells; settings: 46 hours with drug, then 2 hours MTT, ratio to control group without drug
# Excerpt: as §1, §2, §3, §4
# [3] = system: SVG p12 (human brain astroglia) cells; assay: MTT colorimetric assay, normal SVG p12 cells; settings: conc. 10 μM, 46 hours with drug, then 2 hours MTT, ratio to control group without drug
# Excerpt: as §1, §2, §3, §4
Structure (SMILES),Cell viability (%) GBM 8401 [1],Cell viability (%) GBM 8901 ([2]; conc. 10 μM),Cell viability (%) SVG p12 [3],"viability at 10 µM ([2]; Homo sapiens, read-out: Cell viability (%) GBM 8901, conc. 10 μM)"
"COC(=O)[C@H](NCC(=O)Nc1cccc2c1C(=O)c1c(NC(=O)CN[C@@H](C(=O)OC)C(C)C)cccc1C2=O)C(C)C [Compound 3e, (D)-1,8-Bis[2-(valinemethyl ester)acetamido]anthraquinone]",153 ± 32%,88 ± 10%,138 ± 10%,–
"COC(=O)[C@H](C)NCC(=O)Nc1cccc2c1C(=O)c1c(NC(=O)CN[C@H](C)C(=O)OC)cccc1C2=O [Compound 3h, (L)-1,8-Bis[2-(alalinemethyl ester)acetamido]anthraquinone]",158 ± 3%,–,128 ± 34%,100 ± 24%
